From patent US20220308068A1, “BIOMARKER IN OSTEOPOROSIS INTERVENTION THERAPY BY BONE PEPTIDE, SCREENING METHOD AND USE THEREOF” (Institute of Food Science and Technology, Chinese Academy …, priority 2019, published 2022)

Experiments:
[1] = system: ovariectomized osteoporosis rat model; test: H&E staining of right tibias; format: in vivo, SD rats; conditions: right tibia, 12 weeks of intervention treatment
Procedure: 1, the construction of ovariectomized rats models: SD rats are kept in a clean environment under a controlled room temperature at 25±2° C. and alternates 12/12 light and dark every day, and the SD rats feed freely. After one week adaptive feeding, randomly select 8 female rats, anesthetize them with 1% (v/v) pentobarbital sodium (40 mg/kg BW), and remove a little fat near ovaries. The remaining 40 rats are ovariectomized after being anesthetized with pentobarbital sodium. The recovery situation is observed in a 4-week recovery period, and their weight changes are detected. These are prepared by the applicant in advance. (any research about metabolic fingerprint changes of ovariectomized osteoporotic rats after intervention with bone peptide have not been reported according to the existing literature). 2, animal grouping and samples collection: the 8 female rats with a little fat near ovaries removed are selected as a sham-operated group, the ovariectomized 40 rats are randomly divided into 5 groups with 8 rats in each group, and are named by a negative control group, a positive control group, a low-concentration treatment group, a medium-concentration treatment group and a high-concentration treatment group. The rats are perfused by different solutions of bovine bone peptide (diluted by ultrapure water, and sterilized) with concentration of 100 mg/kg, 200 mg/kg, and 500 mg/kg according to the weights of the rats. The rats in the negative control group are perfused with equal volume of ultrapure sterile water (a perfusing volume is generally 1-2 mL/100 g BW), and the rats in the positive control group are perfused with 50 μg/kg of 17β-estradiol (ES). Observe weight changes of the rats and measure the weights every two weeks. After perfusing experiment, the rats are sacrificed in accordance with the animal welfare operating procedures, femurs and tibias on both sides are taken, and soft tissues such as muscle and fascia attached to bone tissues are removed. The right tibias are subjected to paraffin-embedded H&E staining treatment after fixing in a phosphate-formalin buffer for 24 hours for morphometric analysis of the tibias of the rats. Left femurs and right femurs is soaked with normal saline, washed repeatedly for 3 times, wrapped with medical gauzes (pre-soaked with normal saline) and tinfoil, and then stored in a −20° C. refrigerator for trabecular bone microstructure (micro-CT scanning) and mechanical strength tests of bone biomechanical indexes (three-point bending test). […]

[2] = system: ovariectomized osteoporosis rat model; test: serum bone turnover markers by automatic serum biochemical analyzer; format: in vivo, SD rats
Procedure: 1, the construction of ovariectomized rats models: SD rats are kept in a clean environment under a controlled room temperature at 25±2° C. and alternates 12/12 light and dark every day, and the SD rats feed freely. After one week adaptive feeding, randomly select 8 female rats, anesthetize them with 1% (v/v) pentobarbital sodium (40 mg/kg BW), and remove a little fat near ovaries. The remaining 40 rats are ovariectomized after being anesthetized with pentobarbital sodium. The recovery situation is observed in a 4-week recovery period, and their weight changes are detected. These are prepared by the applicant in advance. (any research about metabolic fingerprint changes of ovariectomized osteoporotic rats after intervention with bone peptide have not been reported according to the existing literature). 2, animal grouping and samples collection: the 8 female rats with a little fat near ovaries removed are selected as a sham-operated group, the ovariectomized 40 rats are randomly divided into 5 groups with 8 rats in each group, and are named by a negative control group, a positive control group, a low-concentration treatment group, a medium-concentration treatment group and a high-concentration treatment group. The rats are perfused by different solutions of bovine bone peptide (diluted by ultrapure water, and sterilized) with concentration of 100 mg/kg, 200 mg/kg, and 500 mg/kg according to the weights of the rats. The rats in the negative control group are perfused with equal volume of ultrapure sterile water (a perfusing volume is generally 1-2 mL/100 g BW), and the rats in the positive control group are perfused with 50 μg/kg of 17β-estradiol (ES). Observe weight changes of the rats and measure the weights every two weeks. Urine is automatically collected with a metabolic cage for 12 hours every 4 weeks (the urine is collected as much as possible under the premise of ensuring normal signs of the rats). 1 mmol/L NaN3 solution is added into collected urine as a preservative, the collected urine is placed in a centrifuge at 4° C. and centrifuged at a speed of 10000×g for 10 minutes, and the supernatant is collected, distributed and stored in a refrigerator at −80° C. for determining. The rats are fasted for 12 hours at 4th week, 8th week, and 12th week. Fasted rats are anesthetized by intraperitoneal injection of pentobarbital sodium (40 mg/kg BW) with a volume concentration of 1%, and are subjected to blood collection from the abdominal aorta (the blood is collected as much as possible under the premise of ensuring normal signs of the rats). Collected blood is placed at 4° C. for 3 h and is centrifuged (5000 rpm) for 10 minutes. Upper serum is collected (collecting 2 mL of blood, separating into 4 tubes after separating the serum), is divided into 0.5 mL EP tubes, and stored in a refrigerator at −80° C. for later use. The metabolic cage comprises a cage body with a bottom and a metabolite collecting part. The metabolite collecting part is arranged below the cage body and comprises a barrel 1 and a cover 2 mounted on an upper end of a peripheral wall of a first side of the barrel, an upper end of a peripheral wall of a second side of the barrel is provided with a drainage port, and a solid-liquid separating part is arranged in the barrel. The solid-liquid separating part comprises an arc-shaped partition plate 3 with a first end fixed with a peripheral wall of the barrel and multi-stage filter plates 4, which divide an inner space of the barrel into a first accommodating space and a second accommodating space. The multi-stage filter plates are arranged in the second accommodating space along a vertical direction, and the multi-stage filter plates are successively arranged end to end to form a folded-line diversion channel. A depth of a bottom wall of the barrel from the first side to the second side becomes larger. […]

[3] = treatment groups and ES group vs Model group
[4] = vs Model group, P<0.05, YBP 100/200/500 mg/kg, ES 50 μg/kg perfused

In the case of `C[C@]12CC[C@@H]3c4ccc(O)cc4CC[C@H]3[C@@H]1CC[C@@H]2O` [ES, 17β-estradiol], the trabecular bone area [1] is reported as “significantly increased”, the trabecular bone connection [1] is reported as “tighter” and the trabecular bone spacing [1] is reported as “smaller”. The trabecular bone width [1] was “wider”, the “content of DPD” value [2, 3] was “on a decline trend” and the “content of PINP” value [2, 3] was “on a decline trend”. The “content of S-CTX” value [2, 3] was “on a decline trend”, the “content of TRAP” value [2, 3] was “on a decline trend” and the “content of B-ALP (bone alkaline phosphatase)” value [2, 4] was “significantly increased”. For the same compound, the “content of BGP (bone gamma-carboxyglutamic acid containing proteins)” value [2, 4] was “significantly increased”.
